Source: patent US20260191998A1, “INDOLE PHTHALOCYANINE COMPOUND, PREPARATION METHOD THEREFOR, AND USE THEREOF IN TUMOR DIAGNOSIS IMAGING” (JIANGSU YAHONG MEDITECH CO., LTD., priority 2022, published 2026)
Counter-ions that a name gives are not always drawn. Values belong to the compound of their own block, whether it stands above or below them.

Assay: UV-VIS absorption spectra (optical property test)
Format: physicochemical
Conditions: 10 μM, DMSO solution; for Absorbance × 10^4: at maximum absorption peak
Method: The UV-VIS absorption spectra of the compounds (10 μM, DMSO solution) were detected using Shimadzu UV2600 spectrophotometer, and the maximum absorption peak and absorbance of each compound were obtained.

Compound: 2-((E)-2-((E)-2-bromo-3-(2-((E)-3,3-dimethyl-1-(6-oxo-6-phenoxyhexyl)indolin-2-ylidene)ethenyl)cyclohex-1-en-1-yl)ethenyl)-1,3,3-trimethyl-3H-indol-1-ium 2,2,2-trifluoroacetate [Example 58]
- Absorbance × 10^4: 2.21

Compound: C[N+]1=C(/C=C/C2=C(Cl)C(=C/C=C3/N(CCOCCC(=O)Oc4ccccc4)c4ccccc4C3(C)C)/CCC2)C(C)(C)c2ccccc21 [Example 52, 2-((E)-2-((E)-2-chloro-3-(2-((E)-3,3-dimethyl-1-(2-(3-oxo-3-phenoxypropoxy)ethyl)indolin-2-ylidene)ethenyl)cyclohex-1-en-1-yl)ethenyl)-1,3,3-trimethyl-3H-indol-1-ium Chloride]
- Absorbance × 10^4: 2.14

Compound: CC1(C)C(/C=C/C2=C(Oc3ccc(S(=O)(=O)O)cc3)C(=C/C=C3/N(CCCCCC(=O)Oc4ccccc4)c4ccccc4C3(C)C)/C[N+](C)(C)C2)=[N+](CCCCCC(=O)Oc2ccccc2)c2ccccc21 [Example 103]
- Absorption peak: 757.5 nm
- Absorbance × 10^4: 2.483

Compound: 2-((E)-2-((E)-2-chloro-3-(2-((E)-3,3-dimethyl-1-(6-oxo-6-(phenylamino)hexyl)indolin-2-ylidene)ethenyl)cyclohex-1-en-1-yl)ethenyl)-3,3-dimethyl-1-(6-oxo-6-(phenylamino) hexyl)-3H-indol-1-ium 2,2,2-trifluoroacetate [Example 27B]
- Absorption peak: 797 nm
- Absorbance × 10^4: 2.117

Compound: CC[N+]1=C(/C=C/C2=C(Sc3ccccc3)C(=C/C=C3/N(CCCCCC(=O)Oc4ccccc4)c4ccccc4C3(C)C)/CCC2)C(C)(C)c2ccccc21.[Cl-] [Example 106]
- Absorption peak: 807.5 nm
- Absorbance × 10^4: 1.997

Compound: CC1(C)C(/C=C/C2=C(Cl)C(=C/C=C3/N(CCCCCC(=O)Oc4ccccc4)c4ccccc4C3(C)C)/CCC2)=[N+](CCCCCC(=O)O)c2ccccc21 [Example 11]
- Absorption peak: 796.5 nm
- Absorbance × 10^4: 2.27

Compound: CC1(C)C(/C=C/C2=C(Cl)C(=C/C=C3/N(CCCCCC(=O)O)c4ccccc4C3(C)C)/CC2)=[N+](CCCCCC(=O)O)c2ccccc21 [Example 84, 1-(5-carboxypentyl)-2-((E)-2-((E)-3-(2-((E)-1-(5-carboxypentyl)-3,3-dimethylindolin-2-ylidene)ethenyl)-2-chlorocyclopent-1-en-1-yl)ethenyl)-3,3-dimethyl-3H-indol-1-ium Chloride]
- Absorbance × 10^4: 2.41

Compound: CC1(C)C(/C=C/C2=C(Cl)C(=C/C=C3/N(CCCCCC(=O)O)c4ccccc4C3(C)C)/C[N+](C)(C)C2)=[N+](CCCCCC(=O)O)c2ccccc21 [Example 25]
- Absorption peak: 767.5 nm
- Absorbance × 10^4: 2.265

Further lines, results first:

- Absorption peak: 797.5 nm
- Absorbance × 10^4: 2.44
Compound: CC1(C)C(/C=C/C2=C(Cl)C(=C/C=C3/N(CCCCCC(=O)Nc4ccccc4)c4ccccc4C3(C)C)/CCC2)=[N+](CCCCS(=O)(=O)O)c2ccccc21 [Example 26, 2-((E)-2-((E)-2-chloro-3-(2-((E)-3,3-dimethyl-1l-(6-oxo-6-(phenylamino)hexyl)indolin-2-ylidene)ethenyl)cyclohex-1-en-1-yl)ethenyl)-3,3-dimethyl-1-(4-sulfonylbutyl)-3H-indo-1-ium Formate]

- Absorption peak: 821 nm
- Absorbance × 10^4: 2.466
Compound: CC[N+]1=C(/C=C/C2=C(Cl)C(=C/C=C3/N(CCOCCC(=O)Oc4ccccc4)c4ccccc4C3(C)C)/CC2)C(C)(C)c2ccccc21 [Example 21, 2-((E)-2-((E)-2-chloro-3-(2-((E)-3,3-dimethyl-1-(2-(3-oxo-3-phenoxypropoxy)ethyl)indol-2-methylene)ethylidene)cyclopent-1-en-1-yl)ethenyl)-1-ethyl-3,3-dimethyl-3H-indol-1-ium Trifluoroacetate]

- Absorbance × 10^4: 0.46
Compound: CC[N+]1=C(/C=C/C2=C(Cl)C(=C/C=C3/N(CCOCCC(=O)O)c4ccccc4C3(C)C)/CCC2)C(C)(C)c2cc(C(=O)O)ccc21.[Cl-] [Example 91]

- Absorbance × 10^4: 2
Compound: COc1ccc2c(c1)C(C)(C)C(/C=C/C1=C(Cl)C(=C/C=C3/N(CCCCCC(=O)Oc4ccccc4)c4ccc(OC)cc4C3(C)C)/CCC1)=[N+]2C [Example 47, 2-((E)-2-((E)-2-chloro-3-(2-((E)-5-methoxy-3,3-dimethyl-1-(6-oxo-6-phenoxyhexyl)indolin-2-ylidene)ethenyl)cyclohex-1-en-1-yl)ethenyl)-5-methoxy-1,3,3-trimethyl-3H-indol-1-ium]

- Absorbance × 10^4: 1.75
Compound: Cc1cccc(C)c1OC(=O)CCCCC[N+]1=C(/C=C/C2=C(Cl)C(=C/C=C3/N(CCCCCC(=O)O)c4ccccc4C3(C)C)/CC2)C(C)(C)c2ccccc21 [Example 88, 2-((E)-2-((E)-3-(2-((E)-1-(5-carboxypentyl)-3,3-dimethylindolin-2-ylidene)ethenyl)-2-chlorocyclopent-1-en-1-yl)ethenyl)-1-(6-(2,6-dimethylphenoxy)-6-oxohexyl)-3,3-dimethyl-3H-indol-1-ium Acetate]

- Absorption peak: 796.5 nm
- Absorbance × 10^4: 2.239
Compound: CC1(C)C(/C=C/C2=C(Cl)C(=C/C=C3/N(CCCCCC(=O)O)c4ccccc4C3(C)C)/CCC2)=[N+](CCCCCC(=O)Oc2ccccc2)c2ccccc21 [Example 85A]

- Absorption peak: 794.5 nm
- Absorbance × 10^4: 2.118
Compound: CC[N+]1=C(/C=C/C2=C(Cl)C(=C/C=C3/N(CCOCCCCC(=O)Oc4ccccc4)c4ccccc4C3(C)C)/CCC2)C(C)(C)c2ccccc21 [Example 37A, 2-((E)-2-((E)-2-chloro-3-(2-((E)-3,3-dimethyl-1-(2-((5-oxo-5-phenoxypentyl)oxy)ethyl)indolin-2-ylidene)ethenyl)cyclohex-1-en-1-yl)ethenyl)-1-ethyl-3,3-dimethyl-3H-indol-1-ium 2,2,2-trifluoroacetate]

- Absorbance × 10^4: 2.24
Compound: CC[N+]1=C(/C=C/C2=C(Oc3ccc(NC(=O)/C=C/CN(C)C)cc3)C(=C/C=C3/N(CCCCCC(=O)Oc4c(C)cccc4C)c4ccccc4C3(C)C)/CCC2)C(C)(C)c2ccccc21.[Cl-] [Example 115]

- Absorption peak: 766 nm
- Absorbance × 10^4: 0.88
Compound: CC1(C)C(/C=C/C2=C(Cl)C(=C/C=C3/N(CCC(=O)O)c4ccccc4C3(C)C)/C[N+](C)(C)C2)=[N+](CCC(=O)O)c2ccccc21 [Example 17, 1-(2-carboxyethyl)-2-((E)-2-((E)-5-(2-((E)-1-(2-carboxyethyl)-3,3-dimethylindolin-2-ylidene)ethenyl)-4-chloro-1,1-dimethyl-1,2,5,6-tetrahydropyridin-1-ium-3-yl)ethenyl)-3,3-dimethyl-3H-indol-1-ium Ditrifluoroacetate]

- Absorption peak: 796.5 nm
- Absorbance × 10^4: 1.17
Compound: CC1(C)C(/C=C/C2=C(Cl)C(=C/C=C3/N(CCCCCC(=O)Oc4ccccc4)c4ccccc4C3(C)C)/CCC2)=[N+](CCCCCC(=O)Oc2ccccc2)c2ccccc21 [Example 5, 2-((E)-2-((E)-2-chloro-3-(2-((E)-3,3-dimethyl-1-(6-oxo-6-phenoxyhexyl)indolin-2-ylidene)ethenyl)cyclohex-1-en-1-yl)ethenyl)-3,3-dimethyl-1-(6-oxo-6-phenoxyhexyl)-3H-indol-1-ium Chloride]
